These results are taken from paper PMC10279920, “Single-molecule visualization of Pif1 helicase translocation on single-stranded DNA” (The Journal of Biological Chemistry, 2023).

SMILES strings stand for the structures.

A word on the Km: it is the substrate concentration at which the rate is half of its maximum.

The assay deals with T1, GFP-Pif1 (Saccharomyces cerevisiae, UniProt P07271, T301A).
T1 construct: N-terminal superfolder GFP fusion of nuclear isoform residues 40-859, pRSF-Duet-1, E. coli Rosetta2(DE3), Ni-NTA purified
T1 sequence (P07271 40-859 T301A): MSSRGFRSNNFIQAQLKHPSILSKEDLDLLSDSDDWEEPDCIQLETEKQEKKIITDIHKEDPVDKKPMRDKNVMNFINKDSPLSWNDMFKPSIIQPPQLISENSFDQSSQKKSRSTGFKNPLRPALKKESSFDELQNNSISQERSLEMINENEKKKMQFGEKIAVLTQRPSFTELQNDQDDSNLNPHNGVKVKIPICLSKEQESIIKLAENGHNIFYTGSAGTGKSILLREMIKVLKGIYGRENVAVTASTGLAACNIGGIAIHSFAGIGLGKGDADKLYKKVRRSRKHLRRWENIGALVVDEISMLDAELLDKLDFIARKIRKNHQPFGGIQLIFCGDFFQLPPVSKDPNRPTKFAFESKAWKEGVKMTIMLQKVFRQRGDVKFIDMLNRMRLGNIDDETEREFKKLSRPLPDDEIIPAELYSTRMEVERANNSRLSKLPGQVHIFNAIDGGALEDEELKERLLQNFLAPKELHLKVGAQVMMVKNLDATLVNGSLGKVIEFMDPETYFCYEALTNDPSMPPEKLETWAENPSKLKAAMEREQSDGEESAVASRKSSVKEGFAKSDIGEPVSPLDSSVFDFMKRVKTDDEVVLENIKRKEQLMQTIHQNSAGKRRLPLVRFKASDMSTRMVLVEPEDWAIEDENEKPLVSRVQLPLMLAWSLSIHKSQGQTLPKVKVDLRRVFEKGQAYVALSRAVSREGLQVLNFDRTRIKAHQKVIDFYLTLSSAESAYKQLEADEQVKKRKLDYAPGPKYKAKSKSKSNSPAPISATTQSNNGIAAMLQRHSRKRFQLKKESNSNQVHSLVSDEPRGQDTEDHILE
Briefly: ATP hydrolysis, [γ-32P]-ATP TLC, Michaelis-Menten fit. In kind it is biochemical. Particulars: M13 ssDNA 1.5 μM nt, 10 nM Pif1, 5 mM MgCl2, 60 mM KCl, pH 7.5, 30 °C, no RPA; labelled compound as tracer.

`Nc1ncnc2c1ncn2[C@@H]1O[C@H](COP(=O)(O)OP(=O)(O)OP(=O)(O)O)[C@@H](O)[C@H]1O` [ATP]: the Michaelis constant (Km) was 1000 ± 830 µM.
